# Experimental data taken from ChEMBL document CHEMBL5154769, “Discovery of the First-in-Class Agonist-Based SOS1 PROTACs Effective in Human Cancer Cells Harboring Various KRAS Mutations” (J Med Chem, 2022).
# The source made the active and inactive calls. The rule behind the calls is not given here.
# What was measured:
# [1] = target: T1, von Hippel-Lindau disease tumor suppressor/Son of sevenless homolog 1 (Homo sapiens, UniProt Q07889+P40337); assay: Protac activity at VHL/SOS1 in human NCI-H358 cells assessed as SOS1 protein degradation at 1 uM incubated for 24 hr by Western blot analysis relative to control; format: cell-based
# Target sequence in this assay (P40337 whole entry, looked up): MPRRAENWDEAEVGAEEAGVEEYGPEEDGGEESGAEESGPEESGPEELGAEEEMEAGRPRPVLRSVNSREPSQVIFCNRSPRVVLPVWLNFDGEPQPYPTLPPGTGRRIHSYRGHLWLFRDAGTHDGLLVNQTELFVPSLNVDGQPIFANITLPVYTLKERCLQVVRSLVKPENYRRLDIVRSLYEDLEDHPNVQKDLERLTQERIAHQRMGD
# Target sequence in this assay (Q07889 whole entry, looked up): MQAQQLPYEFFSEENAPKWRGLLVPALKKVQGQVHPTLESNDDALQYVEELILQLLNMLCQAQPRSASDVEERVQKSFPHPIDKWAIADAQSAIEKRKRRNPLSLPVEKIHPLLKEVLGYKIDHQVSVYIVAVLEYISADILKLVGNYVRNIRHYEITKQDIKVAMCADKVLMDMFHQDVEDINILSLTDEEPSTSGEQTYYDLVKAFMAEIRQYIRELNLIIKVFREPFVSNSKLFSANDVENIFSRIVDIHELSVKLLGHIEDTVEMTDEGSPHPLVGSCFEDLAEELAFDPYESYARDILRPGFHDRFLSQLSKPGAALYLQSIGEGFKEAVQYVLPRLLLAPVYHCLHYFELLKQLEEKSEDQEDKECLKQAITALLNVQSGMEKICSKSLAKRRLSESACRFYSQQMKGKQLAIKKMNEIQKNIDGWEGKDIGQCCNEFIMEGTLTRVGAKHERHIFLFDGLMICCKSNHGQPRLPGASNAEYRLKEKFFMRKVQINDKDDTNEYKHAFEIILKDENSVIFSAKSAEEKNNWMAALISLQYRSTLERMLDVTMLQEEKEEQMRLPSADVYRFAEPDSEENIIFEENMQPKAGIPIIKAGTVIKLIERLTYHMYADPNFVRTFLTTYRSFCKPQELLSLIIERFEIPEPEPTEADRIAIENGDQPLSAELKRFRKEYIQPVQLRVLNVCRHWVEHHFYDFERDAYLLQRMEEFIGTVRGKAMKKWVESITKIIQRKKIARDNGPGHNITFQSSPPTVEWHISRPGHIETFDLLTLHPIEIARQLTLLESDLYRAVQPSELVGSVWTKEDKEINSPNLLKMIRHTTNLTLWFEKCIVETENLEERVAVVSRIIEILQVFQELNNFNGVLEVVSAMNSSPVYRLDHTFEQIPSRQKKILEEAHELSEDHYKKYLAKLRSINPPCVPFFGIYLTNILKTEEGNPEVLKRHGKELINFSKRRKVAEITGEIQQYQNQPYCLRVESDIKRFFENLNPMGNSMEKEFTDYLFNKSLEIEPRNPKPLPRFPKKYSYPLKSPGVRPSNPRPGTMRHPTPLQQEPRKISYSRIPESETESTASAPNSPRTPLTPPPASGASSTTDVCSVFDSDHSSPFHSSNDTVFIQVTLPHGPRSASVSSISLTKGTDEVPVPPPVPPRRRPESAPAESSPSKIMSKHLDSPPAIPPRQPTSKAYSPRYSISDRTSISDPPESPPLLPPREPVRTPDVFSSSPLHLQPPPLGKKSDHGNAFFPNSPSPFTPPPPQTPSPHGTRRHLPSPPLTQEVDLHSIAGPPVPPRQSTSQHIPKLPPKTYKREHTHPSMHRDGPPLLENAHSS
# [2] = target: T1, von Hippel-Lindau disease tumor suppressor/Son of sevenless homolog 1; assay: Protac activity at VHL/SOS1 in human NCI-H358 cells assessed as SOS1 protein degradation at 0.1 uM incubated for 24 hr by Western blot analysis relative to control; format: cell-based
# Target sequence in this assay (P40337 whole entry, looked up): as the sequence (P40337 whole entry, looked up) above
# Target sequence in this assay (Q07889 whole entry, looked up): as the sequence (Q07889 whole entry, looked up) above
# [3] = target: T1, von Hippel-Lindau disease tumor suppressor/Son of sevenless homolog 1; assay: Protac activity at VHL/SOS1 in human NCI-H358 cells assessed as SOS1 protein degradation incubated for 24 hr by Western blot analysis; format: cell-based
# Target sequence in this assay (Q07889 whole entry): as the sequence (Q07889 whole entry, looked up) above
# Target sequence in this assay (P40337 whole entry): as the sequence (P40337 whole entry, looked up) above
# [4] = tested on: NCI-H358; assay: Effect of compound on human NCI-H358 cells assessed as increase in phophorylated ERK level incubated for 24 hr by Western blot analysis; format: functional, cell-based
SMILES,Activity [1],Activity [2],DC50 [3],Activity [4]
Cc1cc(Cn2c(N3CC4(CNC4)C3)nc3c(N4CCN(CCCCC(=O)NCCCC(=O)N[C@H](C(=O)N5C[C@H](O)C[C@H]5C(=O)N[C@@H](C)c5ccc(-c6scnc6C)cc5)C(C)(C)C)CC4)cc(Cl)cc32)cc(C)c1F,0%,3.2%,,
Cc1cc(Cn2c(N3CC4(CNC4)C3)nc3c(N4CCN(CCCCCCCCCCCC(=O)N[C@H](C(=O)N5C[C@H](O)C[C@H]5C(=O)N[C@@H](C)c5ccc(-c6scnc6C)cc5)C(C)(C)C)CC4)cc(Cl)cc32)cc(C)c1F,49%,33%,,
Cc1cc(Cn2c(N3CC4(CNC4)C3)nc3c(N4CCN(CCCCCCCCCCC(=O)N[C@H](C(=O)N5C[C@H](O)C[C@H]5C(=O)N[C@@H](C)c5ccc(-c6scnc6C)cc5)C(C)(C)C)CC4)cc(Cl)cc32)cc(C)c1F,63.2%,31.7%,,
Cc1cc(Cn2c(N3CC4(CNC4)C3)nc3c(N4CCN(CCCCCCCC(=O)N[C@H](C(=O)N5C[C@H](O)C[C@H]5C(=O)N[C@@H](C)c5ccc(-c6scnc6C)cc5)C(C)(C)C)CC4)cc(Cl)cc32)cc(C)c1F,80.9%,27.6%,0.15 µM,
Cc1cc(Cn2c(N3CC4(CNC4)C3)nc3c(N4CCN(CCC(=O)NCCCC(=O)N[C@H](C(=O)N5C[C@H](O)C[C@H]5C(=O)N[C@@H](C)c5ccc(-c6scnc6C)cc5)C(C)(C)C)CC4)cc(Cl)cc32)cc(C)c1F,18.3%,0%,,
Cc1cc(Cn2c(N3CC4(CNC4)C3)nc3c(N4CCN(CCCCCCC(=O)N[C@H](C(=O)N5C[C@H](O)C[C@H]5C(=O)N[C@@H](C)c5ccc(-c6scnc6C)cc5)C(C)(C)C)CC4)cc(Cl)cc32)cc(C)c1F,79.9%,30.7%,0.216 µM,
Cc1cc(Cn2c(N3CC4(CNC4)C3)nc3c(N4CCN(CCCC(=O)NCCCC(=O)N[C@H](C(=O)N5C[C@H](O)C[C@H]5C(=O)N[C@@H](C)c5ccc(-c6scnc6C)cc5)C(C)(C)C)CC4)cc(Cl)cc32)cc(C)c1F,12.7%,8%,,
Cc1cc(Cn2c(N3CC4(CNC4)C3)nc3c(N4CCN(CCCCCCCCC(=O)N[C@H](C(=O)N5C[C@@H](O)C[C@H]5C(=O)N[C@@H](C)c5ccc(-c6scnc6C)cc5)C(C)(C)C)CC4)cc(Cl)cc32)cc(C)c1F,,,,Active
Cc1cc(Cn2c(N3CC4(CNC4)C3)nc3c(N4CCN(CCCCCC(=O)N[C@H](C(=O)N5C[C@H](O)C[C@H]5C(=O)N[C@@H](C)c5ccc(-c6scnc6C)cc5)C(C)(C)C)CC4)cc(Cl)cc32)cc(C)c1F,30.4%,5.8%,,
Cc1cc(Cn2c(N3CC4(CNC4)C3)nc3c(N4CCN(CC5CCN(CCC(=O)N[C@H](C(=O)N6C[C@H](O)C[C@H]6C(=O)N[C@@H](C)c6ccc(-c7scnc7C)cc6)C(C)(C)C)CC5)CC4)cc(Cl)cc32)cc(C)c1F,9.4%,18.1%,,
Cc1cc(Cn2c(N3CC4(CNC4)C3)nc3c(N4CCN(CCOCCOCC(=O)N[C@H](C(=O)N5C[C@H](O)C[C@H]5C(=O)N[C@@H](C)c5ccc(-c6scnc6C)cc5)C(C)(C)C)CC4)cc(Cl)cc32)cc(C)c1F,24.4%,23.3%,,
Cc1cc(Cn2c(N3CC4(CNC4)C3)nc3c(N4CCN(CCCCCCCCCC(=O)N[C@H](C(=O)N5C[C@H](O)C[C@H]5C(=O)N[C@@H](C)c5ccc(-c6scnc6C)cc5)C(C)(C)C)CC4)cc(Cl)cc32)cc(C)c1F,82%,38.5%,0.182 µM,
Cc1cc(Cn2c(N3CC4(CNC4)C3)nc3c(N4CCN(CCOCCOCCOCCC(=O)N[C@H](C(=O)N5C[C@H](O)C[C@H]5C(=O)N[C@@H](C)c5ccc(-c6scnc6C)cc5)C(C)(C)C)CC4)cc(Cl)cc32)cc(C)c1F,36.6%,15.4%,,
Cc1cc(Cn2c(N3CC4(CNC4)C3)nc3c(N4CCN(C)CC4)cc(Cl)cc32)cc(C)c1F,,,,Active
Cc1cc(Cn2c(N3CC4(CNC4)C3)nc3c(N4CCN(CC5CCN(CC(=O)N[C@H](C(=O)N6C[C@H](O)C[C@H]6C(=O)N[C@@H](C)c6ccc(-c7scnc7C)cc6)C(C)(C)C)CC5)CC4)cc(Cl)cc32)cc(C)c1F,43.3%,13%,,
Cc1cc(Cn2c(N3CC4(CNC4)C3)nc3c(N4CCN(CC5CCN(CCCC(=O)N[C@H](C(=O)N6C[C@H](O)C[C@H]6C(=O)N[C@@H](C)c6ccc(-c7scnc7C)cc6)C(C)(C)C)CC5)CC4)cc(Cl)cc32)cc(C)c1F,11.2%,7%,,
Cc1cc(Cn2c(N3CC4(CNC4)C3)nc3c(N4CCN(CCOCCOCCC(=O)N[C@H](C(=O)N5C[C@H](O)C[C@H]5C(=O)N[C@@H](C)c5ccc(-c6scnc6C)cc5)C(C)(C)C)CC4)cc(Cl)cc32)cc(C)c1F,14%,4.4%,,
